What was measured:
rabbit [1] = details: Prenatal developmental toxicity study, new zealand white, Oral, Gavage/Intubation, dose end: 18 GD
rat [2] = details: Prenatal developmental toxicity study, sprague dawley, Oral, Gavage/Intubation, dose end: 15 GD
rat [3] = details: Prenatal developmental toxicity study, sprague dawley, Inhalation, Whole-Body, dose end: 15 GD
rabbit [4] = details: Prenatal developmental toxicity study, new zealand white, Inhalation, Whole-Body, dose end: 18 GD
rabbit [5] = details: Prenatal developmental toxicity study, dutch, Inhalation, Whole-Body, dose end: 18 GD
rat [6] = details: Prenatal developmental toxicity study, sprague dawley, Inhalation, Whole-Body, dose end: 15 GD; remark: listed apart in the source
rat [7] = details: Prenatal developmental toxicity study, fischer, Inhalation, Whole-Body, dose end: 15 GD
rat [8] = details: Prenatal developmental toxicity study; wistar; Inhalation; Whole-Body; dose end: 20 GD; group: developmental; developmental / developmental malformation / heart / dilatation
rabbit [9] = details: Prenatal developmental toxicity study; himalayan; Inhalation; Whole-Body; dose end: 29 GD; group: developmental; developmental / developmental malformation / heart / adhesions + developmental / developmental malformation / kidney / dilatation
rat [10] = details: Multigenerational reproductive toxicity study, wistar, Oral, Feed, dose end: 2 generation
rat [11] = details: Prenatal developmental toxicity study, sprague dawley, Oral, Gavage/Intubation, dose end: 20 GD
rabbit [12] = details: Prenatal developmental toxicity study, new zealand white, Oral, Gavage/Intubation, dose end: 28 GD
rat [13] = details: Combined chronic toxicity/carcinogenicity, fischer, Oral, Feed, dose end: 24 month
mouse [14] = details: Carcinogenicity, cd1, Oral, Feed, dose end: 90 week
dog = details: Chronic toxicity, beagle, Oral, Feed, dose end: 52 week
mouse [15] = details: Multigenerational reproductive toxicity study, cd1, Oral, Water, dose end: 2 generation
[16] = group: developmental, developmental / developmental malformation / bone / full supernumerary
[17] = group: maternal, systemic / in life observation / body weight / body weight gain + systemic / in life observation / food consumption / food consumption
[18] = group: maternal, systemic / in life observation / body weight / body weight gain + systemic / in life observation / food consumption / food consumption + …
[19] = group: developmental, developmental / developmental malformation / bone / bent + developmental / developmental malformation / bone / full supernumerary + …
[20] = group: maternal, systemic / in life observation / body weight / body weight gain
[21] = group: maternal, systemic / in life observation / body weight / body weight gain + systemic / in life observation / clinical signs / urine staining - …
[22] = group: developmental, developmental / developmental malformation / bone / wavy + developmental / developmental malformation / general / [other] + developmental / …
[23] = group: developmental, developmental / developmental malformation / general / [other] + systemic / in life observation / body weight / fetal weight
[24] = group: maternal, reproductive / reproductive performance / resorptions / resorptions
[25] = group: developmental, developmental / developmental malformation / bone / [other] + developmental / developmental malformation / bone / absent + developmental / …
[26] = group: maternal, reproductive / reproductive performance / estrous cycle / corpora lutea + reproductive / reproductive performance / implantations / …
[27] = group: developmental, developmental / developmental malformation / bone / delayed ossification + developmental / developmental malformation / bone / misaligned + …
[28] = group: maternal, reproductive / reproductive performance / postimplantation loss / postimplantation loss + systemic / hematology / hemoglobin (hgb) / …
[29] = group: developmental, developmental / developmental malformation / bone / [other] + developmental / developmental malformation / bone / fused + developmental / …
[30] = group: developmental, developmental / developmental malformation / bone / [other] + developmental / developmental malformation / heart / [other] + systemic / in …
[31] = group: developmental, developmental / developmental malformation / bone / [other] + developmental / developmental malformation / bone / bipartite ossification + …
[32] = group: developmental, developmental / developmental malformation / bone / incomplete ossification + developmental / developmental malformation / bone / unossified
[33] = group: maternal, reproductive / reproductive performance / implantations / implantations + systemic / hematology / erythrocyte (rbc) count differential / …
[34] = group: maternal, systemic / organ weight / liver / absolute
[35] = group: offspring, developmental / offspring survival late / viability index / viability index + systemic / in life observation / body weight / offspring (pup…
[36] = group: parental, systemic / pathology microscopic / thyroid gland / colloid content
[37] = group: parental, systemic / pathology microscopic / thyroid gland / colloid content + systemic / organ weight / thyroid gland / absolute + systemic / organ …
[38] = group: developmental, developmental / developmental malformation / bone / incomplete ossification + developmental / developmental malformation / bone / short + …
[39] = group: maternal, systemic / in life observation / body weight / body weight gain + systemic / in life observation / clinical signs / salivation + systemic / …
[40] = group: developmental, developmental / developmental malformation / bone / [other] + developmental / developmental malformation / bone / extra ossification site + …
[41] = group: cholinesterase, cholinesterase / cholinesterase / cholinesterase / plasma cholinesterase (che)
[42] = group: systemic, systemic / clinical chemistry / alanine aminotransferase (alt/sgpt) / alanine aminotransferase (alt/sgpt) + systemic / clinical chemistry / …
[43] = group: cholinesterase, cholinesterase / cholinesterase / cholinesterase / brain cholinesterase (che) + cholinesterase / cholinesterase / cholinesterase / …
[44] = group: systemic, systemic / hematology / mean corpuscular (cell) volume (mcv) / mean corpuscular (cell) volume (mcv) + systemic / hematology / mean …
[45] = group: cholinesterase, cholinesterase / cholinesterase / cholinesterase / plasma cholinesterase (che) + cholinesterase / cholinesterase / cholinesterase / …
[46] = group: systemic, systemic / hematology / erythrocyte (rbc) count differential / erythrocyte (rbc) + systemic / hematology / hematocrit (hct) / hematocrit (…
[47] = group: offspring, systemic / in life observation / body weight / offspring (pup) weight
[48] = group: parental, systemic / organ weight / kidney / relative to body weight + systemic / organ weight / epididymis / relative to body weight + systemic / …

## O=C(O)COc1ccc(Cl)cc1Cl.OCCNCCO [2,4-Dichlorophenoxyacetic acid diethanolamine]
Rabbit [1]; [16]
  LEL: 60 mg/kg/day
  LOAEL: > 60 mg/kg/day
  NEL: 30 mg/kg/day
  NOAEL: ≥ 60 mg/kg/day
Rabbit [1]; [17]
  LEL: 30 mg/kg/day
  LOAEL: 30 mg/kg/day
Rabbit [1]; [18]
  NEL: 15 mg/kg/day
  NOAEL: 15 mg/kg/day
Rat [2]; [19]
  LEL: 75 mg/kg/day
  LOAEL: 75 mg/kg/day
  NEL: 15 mg/kg/day
  NOAEL: 15 mg/kg/day
Rat [2]; [20]
  LEL: 75 mg/kg/day
  LOAEL: 75 mg/kg/day
Rat [2]; [21]
  NEL: 15 mg/kg/day
  NOAEL: 15 mg/kg/day

## CCOCCOC(C)=O [2-Ethoxyethyl acetate]
Rat [3]; [22]
  LOAEL: > 600 ppm
  NOAEL: ≥ 600 ppm
Rat [3]; [23]
  LEL: 130 ppm
  NEL: < 130 ppm
Rat [3]; [24]
  LEL: 390 ppm
  LOAEL: > 600 ppm
  NEL: 130 ppm
  NOAEL: ≥ 600 ppm
Rabbit [4]; [25]
  LOAEL: > 300 ppm
  NEL: 50 ppm
  NOAEL: ≥ 300 ppm
Rabbit [4]; group: developmental, developmental / developmental malformation / bone / incomplete ossification + developmental / developmental malformation / bone / misshapen…
  LEL: 100 ppm
Rabbit [4]; [26]
  LOAEL: > 300 ppm
  NEL: 50 ppm
  NOAEL: ≥ 300 ppm
Rabbit [4]; group: maternal, systemic / hematology / platelet / platelet + systemic / in life observation / body weight / body weight gain + systemic / in life …
  LEL: 100 ppm
Rabbit [5]; [27]
  LOAEL: > 400 ppm
  NEL: 25 ppm
  NOAEL: ≥ 400 ppm
Rabbit [5]; group: developmental, developmental / developmental malformation / bone / delayed ossification + developmental / developmental malformation / spleen / pale + …
  LEL: 100 ppm
Rabbit [5]; [28]
  LEL: 400 ppm
  LOAEL: > 400 ppm
  NEL: 100 ppm
  NOAEL: ≥ 400 ppm
Rat [6]; [29]
  LOAEL: > 600 mg/kg/day
  NOAEL: ≥ 600 mg/kg/day
Rat [6]; [30]
  LEL: 130 mg/kg/day
  NEL: < 130 mg/kg/day
Rat [6]; [24]
  LEL: 390 mg/kg/day
  LOAEL: > 600 mg/kg/day
  NEL: 130 mg/kg/day
  NOAEL: ≥ 600 mg/kg/day
Rat [7]; [31]
  LOAEL: > 300 ppm
  NOAEL: ≥ 300 ppm
Rat [7]; [32]
  LEL: 50 ppm
  NEL: < 50 ppm
Rat [7]; [33]
  LOAEL: > 300 ppm
  NOAEL: ≥ 300 ppm
Rat [7]; [34]
  LEL: 50 ppm
  NEL: < 50 ppm

## CC(C)CO [2-Methyl-1-propanol]
Rat [8]
  LEL: 10 ppm
  LOAEL: > 10 ppm
  NEL: 2.5 ppm
  NOAEL: ≥ 10 ppm
Rabbit [9]
  LEL: 10 mg/L
  LOAEL: > 10 ppm
  NEL: 2.5 ppm
  NOAEL: ≥ 10 ppm

## Cc1[nH]n(C)c(=O)c1C(=O)c1ccc(C(F)(F)F)cc1S(C)(=O)=O [Pyrasulfotole]
Rat [10]; [35]
  LEL: 3.68 mg/kg/day
  LOAEL: > 354 mg/kg/day
  NEL: < 3.68 mg/kg/day
  NOAEL: ≥ 354 mg/kg/day
Rat [10]; [36]
  LOAEL: 2.5 mg/kg/day
  NOAEL: < 2.5 mg/kg/day
Rat [10]; [37]
  LEL: 2.5 mg/kg/day
  NEL: < 2.5 mg/kg/day
Rat [11]; [38]
  LEL: 100 mg/kg/day
  LOAEL: 100 mg/kg/day
  NEL: 10 mg/kg/day
  NOAEL: 10 mg/kg/day
Rat [11]; [39]
  LEL: 100 mg/kg/day
  LOAEL: 100 mg/kg/day
  NEL: 10 mg/kg/day
  NOAEL: 10 mg/kg/day
Rabbit [12]; [40]
  LEL: 75 mg/kg/day
  LOAEL: 75 mg/kg/day
  NEL: 10 mg/kg/day
  NOAEL: 10 mg/kg/day
Rabbit [12]; [17]
  LEL: 250 mg/kg/day
  LOAEL: 250 mg/kg/day
  NEL: 75 mg/kg/day
  NOAEL: 75 mg/kg/day

## CCCCSP(=O)(SCCCC)SCCCC [Tribufos]
Rat [13]; [41]
  LEL: 0.2 mg/kg/day
  LOAEL: 0.2 mg/kg/day
  NEL: < 0.2 mg/kg/day
  NOAEL: < 0.2 mg/kg/day
Rat [13]; [42]
  LEL: 1.8 mg/kg/day
  LOAEL: > 16.8 mg/kg/day
  NEL: 0.2 mg/kg/day
  NOAEL: ≥ 16.8 mg/kg/day
Mouse [14]; [43]
  LEL: 1.64 mg/kg/day
  LOAEL: 1.64 mg/kg/day
  NEL: < 1.64 mg/kg/day
  NOAEL: < 1.64 mg/kg/day
Mouse [14]; [44]
  LEL: 1.64 mg/kg/day
  LOAEL: 1.64 mg/kg/day
  NEL: < 1.64 mg/kg/day
  NOAEL: < 1.64 mg/kg/day
dog; [41]
  LEL: 0.4 mg/kg/day
  LOAEL: 0.4 mg/kg/day
dog; [45]
  NEL: 0.1 mg/kg/day
  NOAEL: 0.1 mg/kg/day
dog; group: systemic, systemic / hematology / erythrocyte (rbc) count differential / erythrocyte (rbc)
  LOAEL: 1.7 mg/kg/day
dog; [46]
  LEL: 1.7 mg/kg/day
  NEL: 0.4 mg/kg/day
  NOAEL: 0.4 mg/kg/day

## CC(=O)OCCOCCOCCOC(C)=O [Triethylene glycol diacetate]
Mouse [15]; [47]
  LEL: 4000 mg/kg/day
  LOAEL: > 4000 mg/kg/day
  NEL: 2000 mg/kg/day
  NOAEL: ≥ 4000 mg/kg/day
Mouse [15]; group: parental, systemic / organ weight / kidney / relative to body weight
  NEL: 2000 mg/kg/day
Mouse [15]; [48]
  LEL: 4000 mg/kg/day
  LOAEL: > 4000 mg/kg/day
  NOAEL: ≥ 4000 mg/kg/day

Source: EPA's ToxRefDB 2
